In experiment [1] the target is Tumor necrosis factor receptor superfamily member 10B (Homo sapiens, UniProt O14763). Description: Binding affinity to human recombinant DR5 assessed as dissociation constant by SPR analysis.
The test system of another experiment is BJAB. Description: Antiproliferative activity against human BJAB cells assessed as reduction in cell viability incubated for 16 hrs by MTS assay. In kind it is functional, cell-based. On the technique in general: Tetrazolium dyes change colour on reduction, which living cells bring about.

Starred links: 1 amine or outer side, 2 acyl side, 3 side chain; linkers in the order of their positions; H or OH if unused. Positions of bridges follow the written chain, without caps; N, C: chain ends. Residues, ends and D or L forms follow the SMILES beside them. Chains are numbered I, II in the order given. *: point of attachment. X1 = NC12CC3(C(=O)NCCCCCC(=O)[*:1])CC(C(=O)NCCCCCC(=O)[*:2])(C1)CC(C(=O)NCCCCCC(=O)[*:3])(C2)C3; X2 = O=C(CCC(=O)[*:1])NCCCC12CC3CC(CCCNC(=O)CCC(=O)[*:2])(C1)CC(CCCNC(=O)CCC(=O)[*:3])(C3)C2; Diglycolyl = O=C(COCC(=O)[*:2])[*:1]; X3 = CC(C)C[C@@H](C)N*

A word on the Kd: it is the equilibrium constant for the complex coming apart. What is called IC50 is the concentration at which inhibition is half-maximal.

Sequence of Tumor necrosis factor receptor superfamily member 10B (O14763 whole entry): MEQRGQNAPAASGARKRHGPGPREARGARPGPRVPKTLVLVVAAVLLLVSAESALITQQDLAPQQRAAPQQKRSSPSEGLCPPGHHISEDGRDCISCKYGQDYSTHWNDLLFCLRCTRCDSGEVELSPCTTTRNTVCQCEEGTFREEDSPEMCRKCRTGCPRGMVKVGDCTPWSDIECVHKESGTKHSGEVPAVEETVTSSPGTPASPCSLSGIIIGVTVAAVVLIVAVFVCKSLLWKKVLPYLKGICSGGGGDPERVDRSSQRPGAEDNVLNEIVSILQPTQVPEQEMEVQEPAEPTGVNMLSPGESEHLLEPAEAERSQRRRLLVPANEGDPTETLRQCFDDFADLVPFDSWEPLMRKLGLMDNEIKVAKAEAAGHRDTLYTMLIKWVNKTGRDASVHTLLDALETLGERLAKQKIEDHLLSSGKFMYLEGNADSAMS

As for “I: Ac-WDCLDNRIGKRQCVKL-NH2 / II: Ac-WDCLDNRIGKRQCVKL-NH2 / III: Ac-WDCLDNRIGKRQCVK-X3 (disulfide I:3-I:13, II:3-II:13, III:3-III:13; linker I:10-II:10-III:10 via X2)”, in experiment [1], the Kd came to 0.539 nM.
The same measure, in the same setting: the same measure for “I: Ac-WDCLDNRIGRRQCVKL-NH2 / II: Ac-WDCLDNRIGRRQCVKL-NH2 / III: Ac-WDCLDNRIGRRQCVKL-NH2 (disulfide I:3-I:13, II:3-II:13, III:3-III:13; linker I:15-II:15-III:15 via X2)”: 0.88 nM; for `CC[C@H](C)[C@@H]1NC(=O)[C@H](CCCNC(=N)N)NC(=O)[C@H](CC(N)=O)NC(=O)[C@H](CC(=O)O)NC(=O)[C@H](CC(C)C)NC(=O)[C@@H](NC(=O)[C@H](CC(=O)O)NC(=O)[C@H](Cc2c[nH]c3ccccc23)NC(C)=O)CSSC[C@@H](C(=O)N[C@H](C(=O)N[C@@H](CCCCNC(=O)COCC(=O)NCCCC[C@H](NC(=O)[C@@H](NC(=O)[C@@H]2CSSC[C@H](NC(=O)[C@H](CC(=O)O)NC(=O)[C@H](Cc3c[nH]c4ccccc34)NC(C)=O)C(=O)N[C@@H](CC(C)C)C(=O)N[C@@H](CC(=O)O)C(=O)N[C@@H](CC(N)=O)C(=O)N[C@@H](CCCNC(=N)N)C(=O)N[C@@H]([C@@H](C)CC)C(=O)NCC(=O)N[C@@H](CCCNC(=N)N)C(=O)N[C@@H](CCCNC(=N)N)C(=O)N[C@@H](CCC(N)=O)C(=O)N2)C(C)C)C(=O)N[C@@H](CC(C)C)C(N)=O)C(=O)N[C@@H](CC(C)C)C(N)=O)C(C)C)NC(=O)[C@H](CCC(N)=O)NC(=O)[C@H](CCCNC(=N)N)NC(=O)[C@H](CCCNC(=N)N)NC(=O)CNC1=O` (I: Ac-WDCLDNRIGRRQCVKL-NH2 / II: Ac-WDCLDNRIGRRQCVKL-NH2; disulfide I:3-I:13, II:3-II:13; linker I:15-II:15 via Diglycolyl): 1.24 nM.
The same measure, in the same setting: the result for “I: Ac-WDCLDNKIGRRQCVKL-NH2 / II: Ac-WDCLDNKIGRRQCVKL-NH2 / III: Ac-WDCLDNKIGRRQCVKL-NH2 (disulfide I:3-I:13, II:3-II:13, III:3-III:13; linker I:7-II:7-III:7 via X2)” reads 0.05 nM.
Regarding `CC[C@H](C)[C@@H]1NC(=O)[C@H](CCCNC(=N)N)NC(=O)[C@H](CC(N)=O)NC(=O)[C@H](CC(=O)O)NC(=O)[C@H](CC(C)C)NC(=O)[C@@H](NC(=O)[C@H](CC(=O)O)NC(=O)[C@H](Cc2c[nH]c3ccccc23)NC(C)=O)CSSC[C@@H](C(=O)N[C@H](C(=O)N[C@@H](CCCCN)C(=O)N[C@@H](CC(C)C)C(N)=O)C(C)C)NC(=O)[C@H](CCC(N)=O)NC(=O)[C@H](CCCNC(=N)N)NC(=O)[C@H](CCCCNC(=O)COCC(=O)NCCCC[C@@H]2NC(=O)CNC(=O)[C@H]([C@@H](C)CC)NC(=O)[C@H](CCCNC(=N)N)NC(=O)[C@H](CC(N)=O)NC(=O)[C@H](CC(=O)O)NC(=O)[C@H](CC(C)C)NC(=O)[C@@H](NC(=O)[C@H](CC(=O)O)NC(=O)[C@H](Cc3c[nH]c4ccccc34)NC(C)=O)CSSC[C@@H](C(=O)N[C@H](C(=O)N[C@@H](CCCCN)C(=O)N[C@@H](CC(C)C)C(N)=O)C(C)C)NC(=O)[C@H](CCC(N)=O)NC(=O)[C@H](CCCNC(=N)N)NC2=O)NC(=O)CNC1=O` (I: Ac-WDCLDNRIGKRQCVKL-NH2 / II: Ac-WDCLDNRIGKRQCVKL-NH2; disulfide I:3-I:13, II:3-II:13; linker I:10-II:10 via Diglycolyl), in experiment [1], the Kd was 0.114 nM.
On to `CC[C@H](C)[C@@H]1NC(=O)[C@H](CCCCNC(=O)COCC(=O)NCCCC[C@@H]2NC(=O)[C@H](CC(N)=O)NC(=O)[C@H](CC(=O)O)NC(=O)[C@H](CC(C)C)NC(=O)[C@@H](NC(=O)[C@H](CC(=O)O)NC(=O)[C@H](Cc3c[nH]c4ccccc34)NC(C)=O)CSSC[C@@H](C(=O)N[C@H](C(=O)N[C@@H](CCCCN)C(=O)N[C@@H](CC(C)C)C(N)=O)C(C)C)NC(=O)[C@H](CCC(N)=O)NC(=O)[C@H](CCCNC(=N)N)NC(=O)[C@H](CCCNC(=N)N)NC(=O)CNC(=O)[C@H]([C@@H](C)CC)NC2=O)NC(=O)[C@H](CC(N)=O)NC(=O)[C@H](CC(=O)O)NC(=O)[C@H](CC(C)C)NC(=O)[C@@H](NC(=O)[C@H](CC(=O)O)NC(=O)[C@H](Cc2c[nH]c3ccccc23)NC(C)=O)CSSC[C@@H](C(=O)N[C@H](C(=O)N[C@@H](CCCCN)C(=O)N[C@@H](CC(C)C)C(N)=O)C(C)C)NC(=O)[C@H](CCC(N)=O)NC(=O)[C@H](CCCNC(=N)N)NC(=O)[C@H](CCCNC(=N)N)NC(=O)CNC1=O` (I: Ac-WDCLDNKIGRRQCVKL-NH2 / II: Ac-WDCLDNKIGRRQCVKL-NH2; disulfide I:3-I:13, II:3-II:13; linker I:7-II:7 via Diglycolyl), for which the dissociation constant (Kd) in experiment [1] worked out at 2.29 nM.
Turning to “I: Ac-WDCLDNRIGRRQCVKL-NH2 / II: Ac-WDCLDNRIGRRQCVKL-NH2 / III: Ac-WDCLDNRIGRRQCVKL-NH2 (disulfide I:3-I:13, II:3-II:13, III:3-III:13; linker I:15-II:15-III:15 via X1)”, the Kd in experiment [1] turned out to be 9.1 nM. For the same compound, the IC50 with BJAB amounted to 31.2 nM.
